Where two headings read alike, the source gives them in different places. Marks after values point to notes of the source that are not given here.

Details of data set [1]: method as in Drug Prescribing information. Conditions: ref Drug Prescribing information; cited from earlier work.
The test system of data set [2] is Mice. Further details: method as in Drug Prescribing information. Conditions: ref Drug Prescribing information; cited from earlier work.
Data set [3] relates to Rats. Further details: method as in Drug Prescribing information. Conditions: ref Drug Prescribing information; cited from earlier work.
Data set [4] has as its system Tg.rasH2 mice. The note with it: for Incidence of lung adenoma, single / Incidence of lung carcinoma / Incidence of lung adenoma, multiple / Incidence of lung tumors, combined: three IP injections of 1000 mg/kg/day urethane; for Incidence of lung adenoma, multiple / Incidence of lung tumors, combined: P < 0.01; for Mean body weight / Mean food consumption: (SD). As to the method: The vehicle was 0.5% carboxymethylcellulose (CMC) with 0.1% Tween 80 (v/v). The vehicle and pretomanid formulations were administered to mice by oral gavage once daily at a dosing volume of 10 mL/kg. Individual dose volumes were calculated based on each animal’s most recently recorded body weight. The dose formulations were magnetically stirred at room temperature for at least 30 minutes prior to and during dosing. The positive control was urethane in 0.9% sodium chloride and was administered via intraperitoneal injection for a total of three times. The positive control formulation was allowed to stand at room temperature for at least 30 minutes and inverted several times prior to dose administration. Aliquots (0.5 to 1.0 mL) were collected from the top, bottom, and middle of the first (week 1), interim (week 13), and last (week 25) pretomanid dose formulations to assess the accuracy of the concentration and/or homogeneity.
Male and female Tg.rasH2 [CByB6F1-Tg(HRAS)2Jic (+/−hemizygous c-Ha-ras)] mice (n = 110/sex) approximately 5 weeks of age were assigned to the main cohort groups to assess carcinogenicity. Male and female wild type CByB6F1 mice [CByB6F1-Tg(HRAS)2Jic (−/−homozygous c-Ha-ras)] (n = 34/sex) approximately 6 weeks of age were assigned to the cohort of mice used to assess the toxicokinetics of pretomanid and its M50 metabolite. […] All mice were obtained from Taconic Biosciences (Germantown, NY). The supplier verified that the mice were murine pathogen-free and females were nulliparous and non-pregnant. At the time of dosing initiation (Day 1), the toxicokinetic mice were approximately 8 weeks of age. On Day 1 of the study, the body weights of the main cohort mice ranged from 19.2 to 25.9 grams (males) and from 15.9 to 20.4 grams (females), and the body weights of the TK cohort mice ranged from 23.4 to 30.2 grams (males) and from 17.6 to 23.5 grams (females).
This study assessed the carcinogenic potential of pretomanid following repeated oral gavage administration once daily for 26 weeks in hemizygous Tg.rasH2 [CByB6F1-Tg(HRAS)2Jic (+/− hemizygous c-Ha-ras)] mice. This study also evaluated the TK profile of pretomanid and metabolite M50 in wild-type CByB6F1 [CByB6F1-Tg(HRAS)2Jic (−/−homozygous c-Ha-ras)] mice. The study was conducted under GLP regulations.
For carcinogenicity assessment (main cohort), 25 mice/sex were included in the vehicle control and pretomanid-treated groups. At the time of dosing initiation (Day 1), the main cohort mice used for assessing carcinogenicity were approximately 7 weeks of age and weighed between 15.9 to 20.4 g (females) and 19.2 to 25.9 g (males). Male groups (Groups 2, 4, and 6) received pretomanid in vehicle at doses of 5, 15, and 40 mg/kg/day, respectively. Female groups (Groups 3, 5, and 7) received pretomanid in vehicle at doses of 10, 30, and 80 mg/kg/day. Positive control mice (n = 10/sex) were included in the main cohort and received three intraperitoneal injections of urethane in saline (1000 mg/kg/injection) on Days 1, 3, and 5. The test and control articles were administered at a dose volume of 10 mL/kg body weight.
Clinical signs, body weights, and food consumption were assessed for the main cohort animals to monitor animal health and any potential toxicity from pretomanid administration. In-life measurements were recorded in Provantis™ Version 9.4.6.3 (Instem, Philadelphia, PA).
All animals, including those in the TK cohort, were observed twice daily for morbidity and mortality. For animals in the main cohort, cage side observations were performed on the day of dosing within 2 hours after the last animal in each group was dosed (Days 1, 3, and 5 for positive control animals).

With `O=C(Cn1ccnc1[N+](=O)[O-])NCc1ccccc1` [Benznidazole], the Genotoxicity entry in data set [1] is “Positive in vitro and in vivo”.

As to `CCN(CC)C(=O)/C(C#N)=C/c1cc(O)c(O)c([N+](=O)[O-])c1` [Entacapone], in data set [2], the Carcinogenicity in mice entry was “Not carcinogenic”. For the same molecule, the Genotoxicity entry in data set [1] is recorded as “Positive in vitro, negative in vivo”. Further, in data set [3], the Carcinogenicity in rats entry is “Carcinogenic”.

For the molecule `Cc1ncc([N+](=O)[O-])n1CCO` [Metronidazole], the Genotoxicity result in data set [1] is listed as “Positive in vitro, negative in vivo”.

With `O=C1CN(/N=C/c2ccc([N+](=O)[O-])o2)C(=O)N1` [Nitrofurantion], in data set [2], the Carcinogenicity in mice result is given as “Not carcinogenic in Swiss or BDF mice, carcinogenic in female B6C3F1 mice”. The Genotoxicity entry in data set [1] is recorded as “Positive in vitro, negative in vivo”. In addition, the Carcinogenicity in rats result in data set [3] is “Not carcinogenic in Holtzman rats or Sprague-Dawley rats, carcinogenic in male F344/N rats”.

For `CCOC(N)=O` [Positive control, urethane], the “Incidence of lung adenoma, single” value in data set [4] (female) and in data set [4] (male) was 0% each time. Besides, the “Incidence of lung carcinoma” value in data set [4] (female) and in data set [4] (male) was 0% in each case. Also, the “Incidence of lung adenoma, multiple” value in data set [4] (female) and in data set [4] (male) was 100%* throughout. Further, the “Incidence of lung tumors, combined” value in data set [4] (female) and in data set [4] (male) was 100%* throughout. In addition, the Mean body weight in data set [4] (female, urethane 1000 mg/kg IP Days 1, 3, 5, study day 1) is listed as 17.89 (0.57) Grams; in data set [4] (female, urethane 1000 mg/kg IP Days 1, 3, 5, study day 29), 19.81 (0.58) Grams; in data set [4] (female, urethane 1000 mg/kg IP Days 1, 3, 5, study day 57), 22.11 (0.68) Grams; in data set [4] (male, urethane 1000 mg/kg IP Days 1, 3, 5, study day 1) it was 21.99 (0.71) Grams; in data set [4] (male, urethane 1000 mg/kg IP Days 1, 3, 5, study day 29), 24.81 (1.41) Grams; in data set [4] (male, urethane 1000 mg/kg IP Days 1, 3, 5, study day 57), 27.73 (1.74) Grams. Also, the Mean food consumption is 3.313 (1.048) Grams/Day in data set [4] (female, urethane 1000 mg/kg IP Days 1, 3, 5, study days 1-8); 6.218 (1.222) Grams/Day in data set [4] (female, urethane 1000 mg/kg IP Days 1, 3, 5, study days 29-36); 4.210 (0.524) Grams/Day in data set [4] (female, urethane 1000 mg/kg IP Days 1, 3, 5, study days 57-64); 2.894 (0.461) Grams/Day in data set [4] (male, urethane 1000 mg/kg IP Days 1, 3, 5, study days 1-8); 4.044 (0.374) Grams/Day in data set [4] (male, urethane 1000 mg/kg IP Days 1, 3, 5, study days 29-36); 3.956 (0.359) Grams/Day in data set [4] (male, urethane 1000 mg/kg IP Days 1, 3, 5, study days 57-64). In addition, in data set [4] (urethane 1000 mg/kg IP Days 1, 3, 5), the Clinical signs result was “ataxia and decreased motor activity”. Besides, in data set [4] (urethane 1000 mg/kg IP, first week of the study), the Body weight change entry is “weight loss”. Besides, the “Incidence of alveolar bronchiolar adenomas” value in data set [4] (urethane, each sex, P < 0.01 vs vehicle control) worked out at 100%.
